Results on 20 compounds are retold here after patent publication US9932341B2, “Use of pyrazolopyrimidine derivatives for the treatment of PI3K-delta related disorders” (Incyte Corporation, priority 2013, dated 2018).

This test concerns the target PI3Kδ (p110δ/p85α) (Homo sapiens (Human), UniProt O00329). Put plainly: PI3Kδ Scintillation Proximity Assay (Example A3). Type of test: biochemical. The note with it: 20 μM ATP, 20 μM PIP2, 4 nM PI3Kδ, read-out: PI3Kδ SPA IC50. As for the experimental part:
[γ-^33P]ATP (10 mCi/mL) was purchased from PerkinElmer (Waltham, Mass.). […] PI3Kδ (p110δ/p85α) was purchased from Millipore (Bedford, Mass.). ATP, MgCl2, DTT, EDTA, MOPS and CHAPS were purchased from Sigma-Aldrich (St. Louis, Mo.). Wheat Germ Agglutinin (WGA) YSi SPA Scintillation Beads was purchased from GE healthcare life sciences (Piscataway, N.J.).
The kinase reaction was conducted in polystyrene 384-well matrix white plate from Thermo Fisher Scientific in a final volume of 25 μL. Inhibitors were first diluted serially in DMSO and added to the plate wells before the addition of other reaction components. The final concentration of DMSO in the assay was 0.5%. The PI3K assays were carried out at room temperature in 20 mM MOPS, pH 6.7, 10 mM MgCl2, 5 mM DTT and CHAPS 0.03%. Reactions were initiated by the addition of ATP, the final reaction mixture consisted of 20 μM PIP2, 20 μM ATP, 0.2 μCi [γ-^33P] ATP, 4 nM PI3Kδ. […] 25 mM EDTA, 400 μM ATP. The final concentration of SPA beads was 1.0 mg/mL. After the plate sealing, plates were shaken overnight at room temperature and centrifuged at 1800 rpm for 10 minutes, the radioactivity of the product was determined by scintillation counting on Topcount (PerkinElmer). IC50 determination was performed by fitting the curve of percent control activity versus the log of the inhibitor concentration using the GraphPad Prism 3.0 software.

The IC50 is the concentration that gives 50% inhibition.

Counter-ions that a name gives are not always drawn.

Sequence of PI3Kδ (p110δ/p85α) (O00329 whole entry): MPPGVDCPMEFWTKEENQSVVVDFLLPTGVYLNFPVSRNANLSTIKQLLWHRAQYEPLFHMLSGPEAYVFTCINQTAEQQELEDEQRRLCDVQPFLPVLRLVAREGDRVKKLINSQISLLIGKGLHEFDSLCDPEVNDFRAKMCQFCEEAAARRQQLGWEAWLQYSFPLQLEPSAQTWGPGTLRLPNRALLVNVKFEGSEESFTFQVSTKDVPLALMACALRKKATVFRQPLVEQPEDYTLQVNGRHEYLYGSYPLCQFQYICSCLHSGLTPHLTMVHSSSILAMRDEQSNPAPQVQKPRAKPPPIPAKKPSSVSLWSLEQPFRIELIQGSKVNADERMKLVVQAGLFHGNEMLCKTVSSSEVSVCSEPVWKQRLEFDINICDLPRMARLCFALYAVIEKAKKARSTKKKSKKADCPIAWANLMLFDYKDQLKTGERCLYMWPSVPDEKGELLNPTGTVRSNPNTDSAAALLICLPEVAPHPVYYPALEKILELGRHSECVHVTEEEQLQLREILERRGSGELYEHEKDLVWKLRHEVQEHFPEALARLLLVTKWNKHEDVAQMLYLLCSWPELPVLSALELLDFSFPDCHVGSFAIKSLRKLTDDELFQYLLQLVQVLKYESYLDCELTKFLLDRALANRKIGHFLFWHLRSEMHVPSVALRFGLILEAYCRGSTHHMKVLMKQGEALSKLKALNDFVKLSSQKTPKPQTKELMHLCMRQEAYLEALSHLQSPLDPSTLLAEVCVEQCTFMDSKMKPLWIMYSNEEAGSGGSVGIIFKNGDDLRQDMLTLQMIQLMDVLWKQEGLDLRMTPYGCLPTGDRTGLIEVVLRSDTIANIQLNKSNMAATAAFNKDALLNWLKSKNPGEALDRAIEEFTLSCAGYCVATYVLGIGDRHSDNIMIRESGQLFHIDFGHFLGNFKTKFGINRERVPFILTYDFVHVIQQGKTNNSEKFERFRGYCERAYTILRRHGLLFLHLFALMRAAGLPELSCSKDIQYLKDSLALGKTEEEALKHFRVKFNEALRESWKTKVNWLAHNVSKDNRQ
Sequence of PI3Kδ (p110δ/p85α) (P27986 whole entry partner): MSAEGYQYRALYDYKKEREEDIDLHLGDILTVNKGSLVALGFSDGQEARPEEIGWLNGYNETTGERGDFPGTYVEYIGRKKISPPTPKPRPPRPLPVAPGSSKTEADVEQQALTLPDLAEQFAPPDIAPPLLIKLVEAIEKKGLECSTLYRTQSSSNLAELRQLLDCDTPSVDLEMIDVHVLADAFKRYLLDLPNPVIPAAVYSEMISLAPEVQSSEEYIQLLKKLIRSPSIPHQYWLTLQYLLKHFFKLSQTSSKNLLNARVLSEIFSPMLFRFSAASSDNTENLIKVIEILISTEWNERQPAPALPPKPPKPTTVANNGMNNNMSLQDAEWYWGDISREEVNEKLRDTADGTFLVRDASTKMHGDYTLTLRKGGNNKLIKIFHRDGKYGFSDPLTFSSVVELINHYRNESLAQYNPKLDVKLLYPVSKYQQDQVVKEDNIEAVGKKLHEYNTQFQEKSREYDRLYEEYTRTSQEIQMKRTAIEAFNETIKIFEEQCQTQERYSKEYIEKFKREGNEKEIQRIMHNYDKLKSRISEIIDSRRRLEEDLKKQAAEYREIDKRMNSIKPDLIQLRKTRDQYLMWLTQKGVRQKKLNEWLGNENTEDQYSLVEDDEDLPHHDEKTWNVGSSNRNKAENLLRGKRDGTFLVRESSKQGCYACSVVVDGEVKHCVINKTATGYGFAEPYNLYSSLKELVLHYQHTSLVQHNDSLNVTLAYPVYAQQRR

As for `COc1c(C(C)n2nc(C)c3c(N)ncnc32)cc(Cl)c(C#N)c1C1CN(CCO)C1` (single isomer, unassigned) [Example 268, 4-[1-(4-Amino-3-methyl-1H-pyrazolo[3,4-d]pyrimidin-1-yl)ethyl]-6-chloro-2-[1-(2-hydroxyethyl)azetidin-3-yl]-3-methoxybenzo nitrile], the IC50 is less than 10 nM.

For `COc1c(C(C)n2nc(C)c3c(N)ncnc32)cc(Cl)c(C#N)c1C1CN(C(C)=O)C1` (single isomer, unassigned) [Example 281, 2-(1-Acetylazetidin-3-yl)-4-[1-(4-amino-3-methyl-1H-pyrazolo[3,4-d]pyrimidin-1-yl)ethyl]-6-chloro-3-methoxybenzonitrile], the IC50 was less than 10 nM. Then `CCOc1c(C(C)n2nc(C)c3c(N)ncnc32)cc(Cl)c(C)c1-c1cnn(CC(N)=O)c1` (single isomer, unassigned) [Example 203, 2-(4-(3-(1-(4-Amino-3-methyl-1H-pyrazolo[3,4-d]pyrimidin-1-yl)ethyl)-5-chloro-2-ethoxy-6-methylphenyl)-1H-pyrazol-1-yl)acetamide], with less than 10 nM; and `COc1c(C(C)n2nc(C)c3c(N)ncnc32)cc(Cl)c(C)c1C1CN(C(C)=O)C1` (centres unmarked) [Example 2, 1-{1-[3-(1-Acetylazetidin-3-yl)-5-chloro-2-methoxy-4-methylphenyl]ethyl}-3-methyl-1H-pyrazolo[3,4-d]pyrimidin-4-amine trifluoroacetate], with less than 10 nM. Then `CCOc1c(C(C)n2nc(C)c3c(N)ncnc32)cc(Cl)c(F)c1C1COC(=O)N1` (single isomer, unassigned) [Example 353, 4-{3-[1-(4-amino-3-methyl-1H-pyrazolo[3,4-d]pyrimidin-1-yl)ethyl]-5-chloro-2-ethoxy-6-fluorophenyl}-1,3-oxazolidin-2-one], with more than 500 nM; and `COc1c(C(C)n2nc(C)c3c(N)ncnc32)cc(Cl)c(C)c1C1CN(CC2CC2)C1` (racemic) [Example 4, 1-(1-{5-Chloro-3-[1-(cyclopropylmethyl)azetidin-3-yl]-2-methoxy-4-methylphenyl}ethyl)-3-methyl-1H-pyrazolo[3,4-d]pyrimidin-4-amine bis(trifluoroacetate)], with less than 10 nM; and `COc1c(C(C)n2nc(C)c3c(N)ncnc32)cc(Cl)c(C)c1C1CN(C(CO)C(F)(F)F)C1` (centres unmarked) [Example 113, 2-(3-{3-[1-(4-Amino-3-methyl-1H-pyrazolo[3,4-d]pyrimidin-1-yl)ethyl]-5-chloro-2-methoxy-6-methylphenyl}azetidin-1-yl)-3,3,3-trifluoropropan-1-ol], with less than 10 nM.

Consider `COC(=O)N1CC(c2c(C#N)c(Cl)cc(C(C)n3nc(C)c4c(N)ncnc43)c2OC)C1` (single isomer, unassigned) [Example 289, Methyl 3-{3-[1-(4-amino-3-methyl-1H-pyrazolo[3,4-d]pyrimidin-1-yl)ethyl]-5-chloro-6-cyano-2-methoxyphenyl}azetidine-1-carboxylate], for which the IC50 is less than 10 nM. Under `COc1c(C(C)n2nc(C)c3c(N)ncnc32)cc(Cl)c(C#N)c1C1CNC1` (single isomer, unassigned) [Example 261, 4-[1-(4-Amino-3-methyl-1H-pyrazolo[3,4-d]pyrimidin-1-yl)ethyl]-2-azetidin-3-yl-6-chloro-3-methoxybenzonitrile] stands less than 10 nM; under `CCOc1c(C(C)n2nc(C)c3c(N)ncnc32)cc(Cl)c(F)c1C1CNC(=O)O1` (single isomer, unassigned) [Example 355, 5-{3-[1-(4-amino-3-methyl-1H-pyrazolo[3,4-d]pyrimidin-1-yl)ethyl]-5-chloro-2-ethoxy-6-fluorophenyl}-1,3-oxazolidin-2-one], 50 to 200 nM. Take `COc1c(C(C)n2nc(C)c3c(N)ncnc32)cc(Cl)c(C)c1C1CN(CC(C)(C)O)C1` (single isomer, unassigned) [Example 158, 1-(3-{3-[1-(4-Amino-3-methyl-1H-pyrazolo[3,4-d]pyrimidin-1-yl)ethyl]-5-chloro-2-methoxy-6-methylphenyl}azetidin-1-yl)-2-methylpropan-2-ol]: the IC50 is less than 10 nM. With `COc1c(C(C)n2nc(C)c3c(N)ncnc32)cc(Cl)c(C)c1C1CN([C@H](C)CO)C1` (stereo partly drawn) [Example 156, (2R)-2-(3-{3-[1-(4-Amino-3-methyl-1H-pyrazolo[3,4-d]pyrimidin-1-yl)ethyl]-5-chloro-2-methoxy-6-methylphenyl}azetidin-1-yl)propan-1-ol], the IC50 is less than 10 nM.

On to `CNC(=O)[C@@H](C)N1CC(c2c(C)c(Cl)cc(C(C)n3nc(C)c4c(N)ncnc43)c2OC)C1` (stereo partly drawn) [Example 110, (2R)-2-(3-{3-[1-(4-Amino-3-methyl-1H-pyrazolo[3,4-d]pyrimidin-1-yl)ethyl]-5-chloro-2-methoxy-6-methylphenyl}azetidin-1-yl)-N-methylpropanamide trifluoroacetate], for which the IC50 was less than 10 nM.

As for `COc1c(C(C)n2nc(C)c3c(N)ncnc32)cc(Cl)c(C)c1C1CN(CC(C)C)C1` (racemic) [Example 7, 1-{1-[5-Chloro-3-(1-isobutylazetidin-3-yl)-2-methoxy-4-methylphenyl]ethyl}-3-methyl-1H-pyrazolo[3,4-d]pyrimidin-4-amine], the IC50 is less than 10 nM.

As to `CCOc1c(C(C)n2nc(C)c3c(N)ncnc32)cc(Cl)c(C#N)c1C1CNC1` (single isomer, unassigned) [Example 212, 4-[1-(4-Amino-3-methyl-1H-pyrazolo[3,4-d]pyrimidin-1-yl)ethyl]-2-azetidin-3-yl-6-chloro-3-ethoxybenzonitrile], the IC50 is less than 10 nM. Then `COc1c(C(C)n2nc(C)c3c(N)ncnc32)cc(Cl)c(C)c1-c1ccc(C(=O)NCCO)nc1` (centres unmarked) [Example 23, 5-(3-(1-(4-amino-3-methyl-1H-pyrazolo[3,4-d]pyrimidin-1-yl)ethyl)-5-chloro-2-methoxy-6-methylphenyl)-N-(2-hydroxyethyl)picolinamide trifluoroacetate], with less than 10 nM; and `CCOc1c(C(C)n2nc(C)c3c(N)ncnc32)cc(Cl)c(C)c1C1CN(CCO)C1` (racemic) [Example 95, 2-(3-{3-[1-(4-Amino-3-methyl-1H-pyrazolo[3,4-d]pyrimidin-1-yl)ethyl]-5-chloro-2-ethoxy-6-methylphenyl}azetidin-1-yl)ethanol bis(trifluoroacetate)], with less than 10 nM. For `COc1c(C(C)n2nc(C)c3c(N)ncnc32)cc(Cl)c(C)c1C1CN(C[C@@H](O)C(F)(F)F)C1` (single isomer, unassigned) [Example 115], the IC50 is less than 10 nM.

For `CCOc1c(C(C)n2nc(C)c3c(N)ncnc32)cc(Cl)c(C#N)c1C1CN(C[C@H](C)O)C1` (stereo partly drawn) [Example 220, 4-[1-(4-Amino-3-methyl-1H-pyrazolo[3,4-d]pyrimidin-1-yl)ethyl]-6-chloro-3-ethoxy-2-{1-[(2S)-2-hydroxypropyl]azetidin-3-yl}benzonitrile], the IC50 was less than 10 nM. As for `COc1c(C(C)n2nc(C)c3c(N)ncnc32)cc(Cl)c(C)c1-c1cncc(C(=O)N(C)C)c1` (single isomer, unassigned) [Example 65, 5-{3-[1-(4-amino-3-methyl-1H-pyrazolo[3,4-d]pyrimidin-1-yl)ethyl]-5-chloro-2-methoxy-6-methylphenyl}-N,N-dimethylnicotinamide], the IC50 is less than 10 nM.
